From article PMC8774648, “Effects of Baicalein and Chrysin on the Structure and Functional Properties of β-Lactoglobulin” (Foods, 2022) come the findings set out here.

Marks after values point to notes of the source that are not given here.

Assay [1] concerns the target T1, β-lactoglobulin (BLG) (Bos taurus, UniProt P02754).
T1 construct: purchased Sigma–Aldrich Co. (St. Louis, MO, USA)
T1 sequence (P02754 17-178): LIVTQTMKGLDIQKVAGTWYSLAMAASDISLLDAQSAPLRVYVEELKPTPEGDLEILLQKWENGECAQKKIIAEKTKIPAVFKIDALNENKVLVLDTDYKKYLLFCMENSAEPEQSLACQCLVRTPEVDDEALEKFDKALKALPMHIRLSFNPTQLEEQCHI
Description: Thermodynamic parameters of Bai/Chr–BLG binding (Van't Hoff equation). The settings on record: for ΔH° (enthalpy change) / ΔS° (entropy change): from Ka at 298, 304 and 310 K. How it is done: In order to determine the primary forces between BLG and Bai/Chr, thermodynamic parameters were calculated using the following equations [23]:(3) logKa=−ΔH°/2.303RT+ΔS°/2.303R (4) ΔG°=ΔH°−TΔS° where R and T represent gas constant (8.314 J mol^−1 K^−1) and temperature (298, 304, and 310 K), respectively. Enthalpy change (ΔH°) and entropy change (ΔS°) of interaction between ligands and biomolecules are the main criteria for evaluating acting force, and free energy (ΔG°) is the main criteria for estimating the spontaneity of interaction.

Assay [2] concerns the target T1, β-lactoglobulin (BLG). Briefly: Three-dimensional fluorescence spectra of BLG with Bai/Chr. The settings on record: c(BLG) = 20.0 µM, c(Bai/Chr) = 20.0 μM; for fluorescence intensity of Peak 2 (3D fluorescence): free BLG 430.6; for fluorescence intensity of Peak 1 (3D fluorescence): free BLG 522.1. How it is done: Intrinsic fluorescence spectroscopic test was measured on a F–7000 spectrophotometer (Hitachi, Japan) equipped with temperature controller according to the method described in the previous study. Briefly, 3 mL solution of BLG (20.0 µM) was titrated by continuously adding different amounts of Bai or Chr (0–20.0 µM). The fluorescence spectra were recorded at different temperatures (298 K, 304 K, and 310 K) with the excitation wavelength of 280 nm and the excitation and emission slit set at 2.5 nm. Moreover, synchronous fluorescence spectra were conducted by setting the wavelength intervals (λem–λex) at 15 nm and 60 nm, respectively. The 3D fluorescence spectra (molar ratios of BLG to Bai/Chr were 1:0 and 1:1) were recorded at excitation and emission wavelength range of 200−600 nm. All the fluorescence values were corrected to eliminate the internal filtering effect according to the previous method, and were used to evaluate the quenching mechanism of Bai/Chr binding to BLG by using the following equation [21]:(1) F0/F=1+Kqτ0[Q]=1+KSV[Q] where F and F0 are the fluorescence intensities of fluorophore with and without quencher; Ksv denotes the Stern–Volmer quenching constant; Kq is the quenching rate constant (Kq = Ksv/τ0), and τ0 is the average lifetime of the biomolecule in the absence of a quencher (τ0 = 10^−8 s); [Q] represents the experimental concentration of Bai/Chr.

Assay [3] has as its target T1, β-lactoglobulin (BLG). Description: Free sulfhydryl (SH) content of BLG (DTNB). The settings on record: Bai/Chr 0 to 20.0 µM, BLG 20.0 µM. The procedure:
The content of free SH was determined by spectrophotometry according to the report by Takić et al. with minor modifications. Briefly, Bai/Chr concentrations were varied from 0 to 20.0 µM, and BLG was kept at 20.0 µM. Then the two solutions were incubated with 10.0 mM DTNB in 50 mM PBS (pH 6.8) for 30 min at room temperature. The absorbance of the sample at 412 nm was recorded and the molar extinction coefficient (14,360 M^−1 cm^−1) was obtained from the standard curve of L-cysteine, which was used to calculate the number of total sulfhydryl groups per gram of protein.

The target in assay [4] is T1, β-lactoglobulin (BLG). Description: Protein surface hydrophobicity (PSH) of BLG with ANS probe. How it is done: PSH of BLG in the presence or absence of Bai or Chr was determined using ANS as a fluorescent probe. In the BLG solution (20.0 µM) alone or Bai/Chr–BLG mixture the ANS solution (5 mM) was continuously added until the fluorescence intensity of the mixture remained constant. The fluorescence intensity of the sample was recorded in the wavelength range of 400–600 nm upon 380 nm excitation. The PSH values were calculated by the following equations [26]:(5) [ANS]bound=F/B (6) [ANS]free=[ANS]total−[ANS]bound (7) F/[ANS]free=−F/Kdapp−Fmax/Kdapp (8) PSH=Fmax/[BLG]Kdapp where [ANS]free and [ANS]bound are the concentration of free and bound ANS, respectively. Kdapp is the apparent dissociation constant of ANS, Fmax is the maximum fluorescence intensity at saturating ANS concentration and B is the proportionality coefficient.

Assay [5] concerns the target T1, β-lactoglobulin (BLG). Briefly: Foaming ability and foaming stability of BLG. The settings on record: for increase of foaming stability (FS) of BLG: compared with BLG alone, molar ratio of BLG to Bai/Chr 10:1; for increase of foaming ability (FA) of BLG: compared with FA of free BLG (25.2%), molar ratios of BLG to Bai/Chr changed from 40:1 to 10:1. The procedure: Foaming ability (FA) and foaming stability (FS) were measured as described by Wang et al. with some modifications. A certain amount of BLG solution (1.0 mg mL^−1) was added to a 100 mL cylinder, and Bai or Chr was added to form solutions with different ratios of BLG to Bai or Chr (40:1, 30:1, 20:1, 10:1). The initial height H0 of the foam was recorded. The foam was then sheared at 10,000 rpm in a high-speed dispersion machine for 1 min and the height of the foam was recorded as H1. The height of the foam was recorded as H2 30 min later. The FA (%) and FS (%) were calculated according to the following equations:(9) FA (%)=H1−H0/H0×100 (10) FS (%)=H2−H0/H1−H0×100

The mark [6] stands for this setting: molar ratio 1:1, versus BLG alone.
[7] abbreviates: molar ratio 2:1, versus BLG alone.

In the case of `O=c1cc(-c2ccccc2)oc2cc(O)c(O)c(O)c12` [Bai, baicalein], the “ΔG° (free energy)” value in assay [1] (T = 298 K) was -7.421 kcal/mol; in assay [1] (T = 304 K), -7.543 kcal/mol; in assay [1] (T = 310 K), -7.665 kcal/mol. Besides, the “ΔH° (enthalpy change)” value in assay [1] was -1.34 kcal/mol. The “ΔS° (entropy change)” value in assay [1] was determined as 85.44 J mol^−1 K^−1. Also, the “fluorescence intensity of Peak 2 (3D fluorescence)” value in assay [2] stood at 206.8. Further, the “fluorescence intensity of Peak 1 (3D fluorescence)” value in assay [2] came to 395.4. For the same molecule, in assay [3], the “effect on contents of free SH group of BLG” value was “gradually weakened”. Moreover, the figures for the “F max (maximum fluorescence intensity at saturating ANS)” value in assay [4] (molar ratio 1:1) and in assay [4] (molar ratio 2:1) were 154.31 ± 3.09 ^ab and 120.27 ± 2.41 ^c, respectively. Besides, the “PSH (protein surface hydrophobicity)” value in assay [4] (molar ratio 1:1) is given as 260.66 ± 5.21 ^b; in assay [4] (molar ratio 2:1), 200.45 ± 4.01 ^d. The “Reduction Rate of PSH” value in assay [4] (setting [6]) is 20.87 ± 0.42 ^d %; in assay [4] (setting [7]), 39.15 ± 0.78 ^c %. Moreover, the “increase of foaming stability (FS) of BLG” value in assay [5] was 80.64%. The “increase of foaming ability (FA) of BLG” value in assay [5] amounted to 18.08%.
As for `O=c1cc(-c2ccccc2)oc2cc(O)cc(O)c12` [Chr, chrysin], the “ΔG° (free energy)” value is -7.268 kcal/mol in assay [1] (T = 298 K), -7.443 kcal/mol in assay [1] (T = 304 K) and -7.62 kcal/mol in assay [1] (T = 310 K). Besides, the “ΔH° (enthalpy change)” value in assay [1] amounted to 1.48 kcal/mol. The “ΔS° (entropy change)” value in assay [1] is reported as 122.18 J mol^−1 K^−1. The “fluorescence intensity of Peak 2 (3D fluorescence)” value in assay [2] was 205.3. In assay [2], the “fluorescence intensity of Peak 1 (3D fluorescence)” value is given as 378.5. Also, the “effect on contents of free SH group of BLG” value in assay [3] is reported as “gradually weakened”. In addition, the “F max (maximum fluorescence intensity at saturating ANS)” value in assay [4] (molar ratio 1:1) is on record as 151.76 ± 3.04 ^b; in assay [4] (molar ratio 2:1), 110.17 ± 2.20 ^d. Further, the “PSH (protein surface hydrophobicity)” value is reported as 252.82 ± 5.07 ^c in assay [4] (molar ratio 1:1) and 193.69 ± 3.87 ^e in assay [4] (molar ratio 2:1). The Kdapp (apparent dissociation constant of ANS) amounted to 5.67 ± 0.31 µM in assay [4] (molar ratio 1:1, c(BLG) = 20.0 µM) and 5.7 ± 0.1 µM in assay [4] (molar ratio 2:1, c(BLG) = 20.0 µM). Besides, the “Reduction Rate of PSH” value is listed as 23.25 ± 0.47 ^b % in assay [4] (setting [6]) and 41.20 ± 0.82 ^a % in assay [4] (setting [7]). Further, the “increase of foaming stability (FS) of BLG” value in assay [5] is 85.57%. In assay [5], the “increase of foaming ability (FA) of BLG” value amounted to 51.32%.
